From ChEMBL document CHEMBL1144565, “Anti-breast cancer activity of LFM-A13, a potent inhibitor of Polo-like kinase (PLK)” (Bioorg Med Chem, 2007)
pIC50: −log10 of the molar value. Active and inactive are the calls of the source. The calls are words filed in the database; no cut-off is given here.

What was measured:
Mus musculus [1] = test: Subacute toxicity in CD1 mouse assessed as myeloid or lymphoid hyperplasia in bone marrow at 40 mg/kg, ip after 30 days; type: organism-based; set-up: dose 40 mg/kg, route intraperitoneal; conditions: in vivo, 720 h
Mus musculus [2] = test: Subacute toxicity in CD1 mouse assessed as absolute neutrophil counts at 20 mg/kg, ip after 30 days; type: organism-based; set-up: dose 20 mg/kg, route intraperitoneal; conditions: in vivo, 720 h
Rattus norvegicus [3] = test: Toxicity in Lewis rat assessed as myeloid or lymphoid hyperplasia in bone marrow at 40 mg/kg, iV after 7 days; type: organism-based; set-up: dose 40 mg/kg, route intravenous; conditions: in vivo, 168 h
U-373MG ATCC = test: Induction of aberrant monopolar and multipolar spindle formation in human U373 cells at 100 uM; type: functional, cell-based
[4] = biological target: Mitogen-activated protein kinase 1 (Homo sapiens, UniProt P28482); test: Inhibition of MAPK1
Mus musculus [5] = test: Subacute toxicity in CD1 mouse assessed as absolute neutrophil counts at 10 mg/kg, ip after 30 days; type: organism-based; set-up: dose 10 mg/kg, route intraperitoneal; conditions: in vivo, 720 h
Mus musculus [6] = test: Acute toxicity in CD1 mouse assessed as absolute neutrophil counts at 20 mg/kg, ip after 7 days; type: organism-based; set-up: dose 20 mg/kg, route intraperitoneal; conditions: in vivo, 168 h
[7] = biological target: Serine/threonine-protein kinase PLK1 (Xenopus laevis, UniProt P70032); test: Inhibition of xenopus recombinant Plx1 expressed in Sf21 cells by measuring autophosphorylation by 15-mins kinase assay; type: functional
BT-20 = test: Induction of aberrant monopolar and multipolar spindle formation in human BT20 cells assessed as at 100 uM; type: functional, cell-based
[8] = biological target: Cyclin-dependent kinase 1 (Homo sapiens, UniProt P06493); test: Inhibition of CDK1
Mus musculus [9] = test: Subacute toxicity in CD1 mouse assessed as myeloid or lymphoid hyperplasia in bone marrow at 80 mg/kg, ip after 30 days; type: organism-based; set-up: dose 80 mg/kg, route intraperitoneal; conditions: in vivo, 720 h
Mus musculus [10] = test: Subacute toxicity in CD1 mouse assessed as myeloid or lymphoid hyperplasia in bone marrow at 10 mg/kg, ip after 30 days; type: organism-based; set-up: dose 10 mg/kg, route intraperitoneal; conditions: in vivo, 720 h
[11] = biological target: Tyrosine-protein kinase JAK2 (Homo sapiens, UniProt O60674); test: Inhibition of JAK2
[12] = biological target: Tyrosine-protein kinase Yes (Homo sapiens, UniProt P07947); test: Inhibition of YES kinase
Mus musculus [13] = test: Effect on non-proliferating tissue in po dosed BALB/c mouse assessed as toxic lesions in brain; type: ADME, organism-based; conditions: in vivo
Rattus norvegicus [14] = test: Toxicity in Lewis rat assessed as WBC counts at 20 mg/kg, iv after 7 days; type: organism-based; set-up: dose 20 mg/kg, route intravenous; conditions: in vivo, 168 h
Mus musculus [15] = test: Effect on non-proliferating tissue in ip dosed CD1 mouse assessed as toxic lesions in myocardium; type: ADME, organism-based; conditions: in vivo
Mus musculus [16] = test: Subacute toxicity in CD1 mouse assessed as WBC counts at 20 mg/kg, ip after 30 days; type: organism-based; set-up: dose 20 mg/kg, route intraperitoneal; conditions: in vivo, 720 h
Mus musculus [17] = test: Acute toxicity in CD1 mouse assessed as WBC counts at 10 mg/kg, ip after 7 days; type: organism-based; set-up: dose 10 mg/kg, route intraperitoneal; conditions: in vivo, 168 h
Mus musculus [18] = test: Acute toxicity in CD1 mouse assessed as absolute neutrophil counts at 80 mg/kg, ip after 7 days; type: organism-based; set-up: dose 80 mg/kg, route intraperitoneal; conditions: in vivo, 168 h
[19] = biological target: T1, Serine/threonine-protein kinase PLK3 (Homo sapiens, UniProt Q9H4B4); test: Inhibition of human PLK3 in presence of 50 uM ATP
Mus musculus [20] = test: Acute toxicity in CD1 mouse assessed as WBC counts at 40 mg/kg, ip after 7 days; type: organism-based; set-up: dose 40 mg/kg, route intraperitoneal; conditions: in vivo, 168 h
Mus musculus [21] = test: Acute toxicity in CD1 mouse assessed as myeloid or lymphoid hyperplasia in bone marrow at 10 mg/kg, ip after 7 days; type: organism-based; set-up: dose 10 mg/kg, route intraperitoneal; conditions: in vivo, 168 h
Mus musculus [22] = test: Acute toxicity in CD1 mouse assessed as absolute neutrophil counts at 40 mg/kg, ip after 7 days; type: organism-based; set-up: dose 40 mg/kg, route intraperitoneal; conditions: in vivo, 168 h
Mus musculus [23] = test: Toxicity in daily po dosed BALB/c mouse; type: organism-based; conditions: in vivo
[24] = biological target: Tyrosine-protein kinase Fyn (Homo sapiens, UniProt P06241); test: Inhibition of FYN kinase
Rattus norvegicus [25] = test: Toxicity in Lewis rat assessed as absolute neutrophil counts at 80 mg/kg, iv after 7 days; type: organism-based; set-up: dose 80 mg/kg, route intravenous; conditions: in vivo, 168 h
[26] = biological target: Mast/stem cell growth factor receptor Kit (Homo sapiens, UniProt P10721); test: Inhibition of C-Kit kinase
[27] = biological target: Platelet-derived growth factor receptor (Homo sapiens, UniProt P09619+P16234); test: Inhibition of PDGFR; type: protein-complex assay
Rattus norvegicus [28] = test: Toxicity in Lewis rat assessed as WBC counts at 40 mg/kg, iv after 7 days; type: organism-based; set-up: dose 40 mg/kg, route intravenous; conditions: in vivo, 168 h
Rattus norvegicus [29] = test: Toxicity in Lewis rat assessed as absolute neutrophil counts at 40 mg/kg, iv after 7 days; type: organism-based; set-up: dose 40 mg/kg, route intravenous; conditions: in vivo, 168 h
Rattus norvegicus [30] = test: Effect on non-proliferating tissue in iv dosed Lewis rat assessed as toxic lesions in lung on day 7; type: ADME, organism-based; conditions: in vivo
Rattus norvegicus [31] = test: Toxicity in Lewis rat assessed as absolute lymphocyte counts at 20 mg/kg, iv after 7 days; type: organism-based; set-up: dose 20 mg/kg, route intravenous; conditions: in vivo, 168 h
Danio rerio = species on record: Danio rerio; test: Effect on cell division blockade in zebrafish two-cell stage embryo assessed as proliferation arrest at 16-cell stage at 500 uM after 30 to 35 mins; type: functional, organism-based
Mus musculus [32] = test: Acute toxicity in CD1 mouse assessed as myeloid or lymphoid hyperplasia in bone marrow at 40 mg/kg, ip after 7 days; type: organism-based; set-up: dose 40 mg/kg, route intraperitoneal; conditions: in vivo, 168 h
Mus musculus [33] = test: Acute toxicity in CD1 mouse assessed as absolute lymphocyte counts at 80 mg/kg, ip after 7 days; type: organism-based; set-up: dose 80 mg/kg, route intraperitoneal; conditions: in vivo, 168 h
Rattus norvegicus [34] = test: Toxicity in Lewis rat assessed as absolute neutrophil counts at 20 mg/kg, iv after 7 days; type: organism-based; set-up: dose 20 mg/kg, route intravenous; conditions: in vivo, 168 h
Mus musculus [35] = test: Acute toxicity in CD1 mouse assessed as absolute lymphocyte counts at 20 mg/kg, ip after 7 days; type: organism-based; set-up: dose 20 mg/kg, route intraperitoneal; conditions: in vivo, 168 h
Mus musculus [36] = test: Subacute toxicity in CD1 mouse assessed as WBC counts at 40 mg/kg, ip after 30 days; type: organism-based; set-up: dose 40 mg/kg, route intraperitoneal; conditions: in vivo, 720 h
[37] = biological target: Cyclin-dependent kinase 3 (Homo sapiens, UniProt Q00526); test: Inhibition of CDK3
Rattus norvegicus [38] = test: Toxicity in Lewis rat assessed as absolute lymphocyte counts at 40 mg/kg, iv after 7 days; type: organism-based; set-up: dose 40 mg/kg, route intravenous; conditions: in vivo, 168 h
Rattus norvegicus [39] = test: Effect on non-proliferating tissue in iv dosed Lewis rat assessed as toxic lesions in myocardium on day 7; type: ADME, organism-based; conditions: in vivo
Mus musculus [40] = test: Acute toxicity in CD1 mouse assessed as absolute lymphocyte counts at 40 mg/kg, ip after 7 days; type: organism-based; set-up: dose 40 mg/kg, route intraperitoneal; conditions: in vivo, 168 h
[41] = biological target: T1, Serine/threonine-protein kinase PLK3; test: Inhibition of human PLK3 in presence of 25 uM ATP
Mus musculus [42] = test: Subacute toxicity in CD1 mouse assessed as WBC counts at 80 mg/kg, ip after 30 days; type: organism-based; set-up: dose 80 mg/kg, route intraperitoneal; conditions: in vivo, 720 h
Rattus norvegicus [43] = test: Toxicity in Lewis rat assessed as myeloid or lymphoid hyperplasia in bone marrow at 20 mg/kg, iV after 7 days; type: organism-based; set-up: dose 20 mg/kg, route intravenous; conditions: in vivo, 168 h
PTK1 = test: Antiproliferative activity against anaphase PTK1 cells assessed as delay in mitosis completion; type: functional, cell-based; conditions: Potorous tridactylus
Mus musculus [44] = test: Toxicity in po dosed BALB/c mouse; type: organism-based; conditions: in vivo
[45] = biological target: Cytoplasmic tyrosine-protein kinase BMX (Homo sapiens, UniProt P51813); test: Inhibition of BMX kinase
Rattus norvegicus [46] = test: Toxicity in Lewis rat assessed as absolute lymphocyte counts at 80 mg/kg, iv after 7 days; type: organism-based; set-up: dose 80 mg/kg, route intravenous; conditions: in vivo, 168 h
Mus musculus [47] = test: Subacute toxicity in CD1 mouse assessed as WBC counts at 10 mg/kg, ip after 30 days; type: organism-based; set-up: dose 10 mg/kg, route intraperitoneal; conditions: in vivo, 720 h
[48] = biological target: Tyrosine-protein kinase ABL1 (Homo sapiens, UniProt P00519); test: Inhibition of ABL kinase
[49] = biological target: Cyclin-dependent kinase 2 (Homo sapiens, UniProt P24941); test: Inhibition of CDK2

T1 sequence (Q9H4B4 whole entry): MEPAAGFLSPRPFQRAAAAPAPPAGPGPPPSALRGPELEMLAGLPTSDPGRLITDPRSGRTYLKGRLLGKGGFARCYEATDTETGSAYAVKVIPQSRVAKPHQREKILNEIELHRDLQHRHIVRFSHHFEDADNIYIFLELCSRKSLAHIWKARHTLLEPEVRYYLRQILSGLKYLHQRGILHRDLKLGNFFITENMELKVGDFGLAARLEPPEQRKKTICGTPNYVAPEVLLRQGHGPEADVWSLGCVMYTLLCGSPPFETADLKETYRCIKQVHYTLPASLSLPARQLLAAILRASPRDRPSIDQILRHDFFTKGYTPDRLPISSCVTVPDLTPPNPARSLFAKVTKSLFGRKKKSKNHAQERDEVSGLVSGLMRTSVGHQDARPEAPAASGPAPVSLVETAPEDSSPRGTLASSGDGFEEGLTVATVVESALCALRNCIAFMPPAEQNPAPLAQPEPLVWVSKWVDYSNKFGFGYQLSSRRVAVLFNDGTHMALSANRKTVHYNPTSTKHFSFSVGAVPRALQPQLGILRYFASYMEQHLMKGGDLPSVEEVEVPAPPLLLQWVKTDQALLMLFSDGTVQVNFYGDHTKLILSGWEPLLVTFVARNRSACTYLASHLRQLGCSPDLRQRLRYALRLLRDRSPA
Sequence of Tyrosine-protein kinase JAK2 (O60674 whole entry): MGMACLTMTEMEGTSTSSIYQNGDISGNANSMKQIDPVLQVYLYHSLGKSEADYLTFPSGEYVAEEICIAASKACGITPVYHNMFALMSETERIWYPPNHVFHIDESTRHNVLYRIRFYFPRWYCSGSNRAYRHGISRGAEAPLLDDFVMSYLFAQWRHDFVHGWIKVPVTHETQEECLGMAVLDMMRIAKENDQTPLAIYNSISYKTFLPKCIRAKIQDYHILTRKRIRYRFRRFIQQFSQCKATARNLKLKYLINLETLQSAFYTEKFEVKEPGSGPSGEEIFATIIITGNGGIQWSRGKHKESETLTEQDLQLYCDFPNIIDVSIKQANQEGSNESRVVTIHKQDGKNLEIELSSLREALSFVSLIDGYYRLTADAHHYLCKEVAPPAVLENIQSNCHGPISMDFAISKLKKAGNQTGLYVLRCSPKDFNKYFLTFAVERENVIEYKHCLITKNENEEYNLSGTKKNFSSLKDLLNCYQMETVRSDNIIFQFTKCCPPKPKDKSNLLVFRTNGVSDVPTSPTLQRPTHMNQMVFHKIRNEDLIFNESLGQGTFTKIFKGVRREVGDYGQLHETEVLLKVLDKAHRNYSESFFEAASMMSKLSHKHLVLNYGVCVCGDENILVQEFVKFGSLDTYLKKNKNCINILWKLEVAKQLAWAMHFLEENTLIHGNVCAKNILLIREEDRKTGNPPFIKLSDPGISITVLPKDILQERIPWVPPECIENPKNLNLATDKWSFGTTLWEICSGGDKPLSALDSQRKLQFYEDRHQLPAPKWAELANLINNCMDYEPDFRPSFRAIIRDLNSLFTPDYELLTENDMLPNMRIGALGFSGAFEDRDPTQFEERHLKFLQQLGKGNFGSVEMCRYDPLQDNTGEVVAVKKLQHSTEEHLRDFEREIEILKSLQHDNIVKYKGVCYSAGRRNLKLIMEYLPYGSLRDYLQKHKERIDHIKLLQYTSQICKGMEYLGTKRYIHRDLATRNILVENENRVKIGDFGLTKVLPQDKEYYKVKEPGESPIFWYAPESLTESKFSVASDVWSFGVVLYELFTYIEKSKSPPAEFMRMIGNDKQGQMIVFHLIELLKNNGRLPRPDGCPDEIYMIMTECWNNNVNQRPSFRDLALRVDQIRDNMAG
Sequence of Cyclin-dependent kinase 1 (P06493 whole entry): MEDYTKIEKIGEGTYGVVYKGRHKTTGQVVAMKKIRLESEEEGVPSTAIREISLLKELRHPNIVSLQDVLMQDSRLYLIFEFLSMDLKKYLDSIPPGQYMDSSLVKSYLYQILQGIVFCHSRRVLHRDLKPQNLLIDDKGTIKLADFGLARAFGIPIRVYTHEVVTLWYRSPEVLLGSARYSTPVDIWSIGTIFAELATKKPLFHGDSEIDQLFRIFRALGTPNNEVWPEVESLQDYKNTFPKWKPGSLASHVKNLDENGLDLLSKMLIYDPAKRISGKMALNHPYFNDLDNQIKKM
Sequence of Tyrosine-protein kinase Yes (P07947 whole entry): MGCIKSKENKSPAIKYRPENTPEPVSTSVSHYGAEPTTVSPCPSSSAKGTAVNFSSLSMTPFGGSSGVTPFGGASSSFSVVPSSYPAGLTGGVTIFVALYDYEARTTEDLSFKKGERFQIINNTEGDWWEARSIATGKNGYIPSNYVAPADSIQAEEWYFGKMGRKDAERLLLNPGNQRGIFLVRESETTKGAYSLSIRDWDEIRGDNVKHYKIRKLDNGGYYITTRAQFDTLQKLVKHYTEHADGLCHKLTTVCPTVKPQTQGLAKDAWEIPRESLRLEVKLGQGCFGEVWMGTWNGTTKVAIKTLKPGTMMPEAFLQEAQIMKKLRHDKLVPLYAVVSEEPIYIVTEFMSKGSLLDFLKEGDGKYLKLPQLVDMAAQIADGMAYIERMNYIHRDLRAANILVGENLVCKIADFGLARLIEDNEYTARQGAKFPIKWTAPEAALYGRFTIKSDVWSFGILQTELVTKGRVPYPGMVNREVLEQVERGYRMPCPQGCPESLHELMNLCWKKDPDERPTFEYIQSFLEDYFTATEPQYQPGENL
Sequence of Tyrosine-protein kinase Fyn (P06241 whole entry): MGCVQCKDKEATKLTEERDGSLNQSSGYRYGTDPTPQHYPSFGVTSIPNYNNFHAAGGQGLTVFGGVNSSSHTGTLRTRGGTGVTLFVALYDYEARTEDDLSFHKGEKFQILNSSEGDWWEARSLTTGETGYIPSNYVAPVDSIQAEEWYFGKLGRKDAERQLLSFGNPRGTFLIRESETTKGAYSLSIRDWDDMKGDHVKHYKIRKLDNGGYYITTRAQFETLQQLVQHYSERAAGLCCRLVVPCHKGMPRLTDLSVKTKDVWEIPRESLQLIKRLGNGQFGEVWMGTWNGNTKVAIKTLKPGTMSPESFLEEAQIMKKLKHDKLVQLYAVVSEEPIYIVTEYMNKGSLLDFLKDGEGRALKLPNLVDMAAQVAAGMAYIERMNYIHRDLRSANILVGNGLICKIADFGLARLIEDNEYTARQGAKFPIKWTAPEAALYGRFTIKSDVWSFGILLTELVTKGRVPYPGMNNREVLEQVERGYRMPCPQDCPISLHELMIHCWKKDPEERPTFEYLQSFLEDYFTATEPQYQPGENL
Sequence of Mast/stem cell growth factor receptor Kit (P10721 whole entry): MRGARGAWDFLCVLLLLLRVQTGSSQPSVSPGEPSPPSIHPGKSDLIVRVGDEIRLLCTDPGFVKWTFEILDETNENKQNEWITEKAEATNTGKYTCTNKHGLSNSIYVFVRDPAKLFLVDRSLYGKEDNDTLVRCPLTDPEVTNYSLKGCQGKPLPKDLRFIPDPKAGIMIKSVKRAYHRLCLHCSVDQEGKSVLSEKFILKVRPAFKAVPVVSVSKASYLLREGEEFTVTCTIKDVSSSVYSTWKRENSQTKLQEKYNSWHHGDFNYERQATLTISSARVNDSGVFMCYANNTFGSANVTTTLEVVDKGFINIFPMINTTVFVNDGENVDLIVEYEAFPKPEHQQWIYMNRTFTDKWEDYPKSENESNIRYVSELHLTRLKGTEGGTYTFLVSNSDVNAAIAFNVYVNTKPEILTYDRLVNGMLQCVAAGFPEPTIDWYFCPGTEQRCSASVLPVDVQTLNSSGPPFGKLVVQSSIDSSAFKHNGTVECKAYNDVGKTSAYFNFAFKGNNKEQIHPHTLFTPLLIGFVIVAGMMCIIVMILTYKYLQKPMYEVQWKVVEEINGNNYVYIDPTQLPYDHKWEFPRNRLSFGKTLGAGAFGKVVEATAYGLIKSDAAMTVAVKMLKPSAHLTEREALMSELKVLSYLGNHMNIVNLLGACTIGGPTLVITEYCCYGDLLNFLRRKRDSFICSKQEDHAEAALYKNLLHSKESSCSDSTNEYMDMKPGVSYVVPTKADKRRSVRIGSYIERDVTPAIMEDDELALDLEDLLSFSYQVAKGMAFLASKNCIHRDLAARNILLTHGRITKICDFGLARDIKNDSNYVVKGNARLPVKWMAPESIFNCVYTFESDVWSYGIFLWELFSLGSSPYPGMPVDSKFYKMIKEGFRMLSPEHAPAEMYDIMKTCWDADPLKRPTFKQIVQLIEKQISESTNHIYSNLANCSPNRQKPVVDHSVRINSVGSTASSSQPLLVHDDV
Sequence of Mitogen-activated protein kinase 1 (P28482 whole entry): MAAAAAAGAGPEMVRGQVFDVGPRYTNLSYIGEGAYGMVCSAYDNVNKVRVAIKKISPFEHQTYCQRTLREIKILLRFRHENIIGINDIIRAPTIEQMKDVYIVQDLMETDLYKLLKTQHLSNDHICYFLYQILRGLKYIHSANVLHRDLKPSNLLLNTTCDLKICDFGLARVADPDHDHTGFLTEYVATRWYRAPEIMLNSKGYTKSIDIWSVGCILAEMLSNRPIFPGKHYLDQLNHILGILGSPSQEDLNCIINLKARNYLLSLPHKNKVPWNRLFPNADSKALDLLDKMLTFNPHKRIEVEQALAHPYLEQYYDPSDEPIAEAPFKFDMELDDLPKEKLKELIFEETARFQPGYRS
Sequence of Cyclin-dependent kinase 3 (Q00526 whole entry): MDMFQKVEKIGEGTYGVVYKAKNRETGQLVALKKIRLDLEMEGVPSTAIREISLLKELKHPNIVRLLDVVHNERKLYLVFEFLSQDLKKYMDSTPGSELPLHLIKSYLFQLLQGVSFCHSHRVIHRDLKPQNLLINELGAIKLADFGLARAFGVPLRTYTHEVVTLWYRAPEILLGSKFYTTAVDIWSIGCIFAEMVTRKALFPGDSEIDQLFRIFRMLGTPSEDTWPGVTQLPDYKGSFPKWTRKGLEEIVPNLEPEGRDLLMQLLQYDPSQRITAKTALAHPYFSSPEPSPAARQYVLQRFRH

C/C(O)=C(\C#N)C(=O)Nc1cc(Br)ccc1Br
Activity (Mus musculus [1]): Non-toxic | Activity (Mus musculus [2]): 2.2 10^9/L | Activity (Rattus norvegicus [3]): Non-toxic | Activity (U-373MG ATCC): Active | pIC50 [4]: < 3.30 | Activity (Mus musculus [5]): 1.4 10^9/L | Activity (Mus musculus [6]): 1.4 10^9/L | pIC50 [7]: 4.99 | Activity (BT-20): Active | pIC50 [8]: < 3.30 | Activity (Mus musculus [9]): Non-toxic | Activity (Mus musculus [10]): Non-toxic | pIC50 [11]: < 3.30 | pIC50 [12]: < 3.30 | Activity (Mus musculus [13]): Non-toxic | Activity (Rattus norvegicus [14]): 11.7 10^9/L | Activity (Mus musculus [15]): Non-toxic | Activity (Mus musculus [16]): 6.2 10^9/L | Activity (Mus musculus [17]): 7 10^9/L | Activity (Mus musculus [18]): 1.7 10^9/L | pIC50 [19]: 4.10 | Activity (Mus musculus [20]): 7 10^9/L | Activity (Mus musculus [21]): Non-toxic | Activity (Mus musculus [22]): 1.6 10^9/L | LD10 (Mus musculus [23]): > 200 mg/kg | pIC50 [24]: 3.62 | Activity (Rattus norvegicus [25]): 1.8 10^9/L | pIC50 [26]: < 3.30 | pIC50 [27]: < 3.30 | Activity (Rattus norvegicus [28]): 12.9 10^9/L | Activity (Rattus norvegicus [29]): 2.1 10^9/L | Activity (Rattus norvegicus [30]): Non-toxic | Activity (Rattus norvegicus [31]): 9.8 10^9/L | Activity (Danio rerio): Active | Activity (Mus musculus [32]): Non-toxic | Activity (Mus musculus [33]): 4.6 10^9/L | Activity (Rattus norvegicus [34]): 1.6 10^9/L | Activity (Mus musculus [35]): 5.8 10^9/L | Activity (Mus musculus [36]): 6.4 10^9/L | pIC50 [37]: < 3.30 | Activity (Rattus norvegicus [38]): 10.6 10^9/L | Activity (Rattus norvegicus [39]): Non-toxic | Activity (Mus musculus [40]): 5.2 10^9/L | pIC50 [41]: 4.21 | Activity (Mus musculus [42]): 6.1 10^9/L | Activity (Rattus norvegicus [43]): Non-toxic | Activity (PTK1): Active | LD10 (Mus musculus [44]): > 100 mg/kg | pIC50 [45]: 3.55 | Activity (Rattus norvegicus [46]): 9.7 10^9/L | Activity (Mus musculus [47]): 6 10^9/L | pIC50 [48]: < 3.30 | pIC50 [49]: < 3.30
